Data taken from publication PMC5078989, “Targeted inhibition of the COP9 signalosome for treatment of cancer” (Nature Communications, 2016).

System: panel of cancer cell lines
Experiment: Cell viability (CellTiter-Glo) dose-response across cancer cell line panel;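 note: after 72 h compound incubation with CellTiter-Glo ATP readout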
Type: cell-based, human
Details: Homo sapiens
Description: Next, we explored the effect of CSN5 inhibition on the viability of cancer cells. To obtain a comprehensive picture, we generated dose–response curves with a CSN5 inhibitor across more than 500 cancer cell lines in a previously described standardized setting[47] (Supplementary Data 1).
A standardized CellTiter-Glo Assay (Promega #G7570) based on the quantification of ATP was applied according to the manufacturer's protocol to measure the amount of viable cells in culture. In brief, cells were seeded into 384-well plates at optimal density for each cell line. After 4 h, compounds were added at different concentrations in growth medium and incubated for another 72 h in a humidifying chamber at 37 °C and 5% CO2. […] EC50 values were calculated from the plot of percentage of inhibition versus inhibitor concentration using the nonlinear regression analysis software Origin 7.5SR6 (OriginLab Corp.).

For COCc1ccccc1NCc1ccc([C@H]2[C@@H](O)CCCc3cncn32)c(-c2ccccc2Cl)c1 [CSN5i-2, (5S,6S)-5-(2′-chloro-5-(((2-(methoxymethyl)phenyl)amino)methyl)-[1,1′-biphenyl]-2-yl)-6,7,8,9-tetrahydro-5H-imidazo[1,5-a]azepin-6-ol], the EC50 (MOG-G-CCM) was 3480 nM, the EC50 (MOLM16, MOLM-16) was 133 nM and the EC50 (MOLM-13, MOLM-13) was 262 nM. The EC50 (MOLT-13, MOLT-13) was 217 nM, the EC50 (MOLT-16, MOLT-16) was 341 nM and the EC50 (MSTO-211H) was 1350 nM. For the same compound, the EC50 (MV4-11, MV-4-11) was 454 nM, the EC50 (Malme-3M) was 2060 nM and the EC50 (MeWo) was 472 nM. It also gave an EC50 (Mono-Mac-1, MONO-MAC-1) of 747 nM, an EC50 (NALM-6, NALM-6) of 209 nM and an EC50 (NB1, NB-1) of 531 nM. It also gave an EC50 (NB-4, NB-4) of 212 nM, an EC50 (NCI-H23, NCI-H23) of 347 nM and an EC50 (NCI-H28, NCI-H28) of 4700 nM. It also gave an EC50 (NCI-H82, NCI-H82) of 5190 nM, an EC50 (NCI-H146, NCI-H146) of 5250 nM and an EC50 (NCI-H211, NCI-H211) of 1730 nM. It also gave an EC50 (NCI-H322, NCI-H322) of 2540 nM, an EC50 (NCI-H441, NCI-H441) of 3410 nM and an EC50 (NCI-H460, NCI-H460) of 8610 nM. The EC50 (NCI-H520, NCI-H520) was 10800 nM, the EC50 (NCI-H647, NCI-H647) was greater than 30000 nM and the EC50 (NCI-H650, NCI-H650) was greater than 30000 nM. For the same compound, the EC50 (NCI-H661, NCI-H661) was 457 nM, the EC50 (NCI-H747, NCI-H747) was 733 nM and the EC50 (NCI-H810, NCI-H810) was 754 nM. The EC50 (NCI-H838, NCI-H838) was 1000 nM, the EC50 (NCI-H841, NCI-H841) was 1040 nM and the EC50 (NCI-H1048, NCI-H1048) was 1920 nM. It also gave an EC50 (NCI-H1155, NCI-H1155) of 653 nM, an EC50 (NCI-H1299, NCI-H1299) of 1520 nM and an EC50 (NCI-H1339, NCI-H1339) of 1130 nM. For the same compound, the EC50 (NCI-H1341) was 2010 nM, the EC50 (NCI-H1355, NCI-H1355) was 1280 nM and the EC50 (NCI-H1373, NCI-H1373) was 9300 nM. It also gave an EC50 (NCI-H1437, NCI-H1437) of 17700 nM, an EC50 (NCI-H1568, NCI-H1568) of 434 nM and an EC50 (NCI-H1650, NCI-H1650) of 1820 nM. It also gave an EC50 (NCI-H1666, NCI-H1666) of 11900 nM, an EC50 (NCI-H1703, NCI-H1703) of 1640 nM and an EC50 (NCI-H1755, NCI-H1755) of 967 nM. The EC50 (NCI-H1792, NCI-H1792) was 2270 nM, the EC50 (NCI-H1915, NCI-H1915) was 1270 nM and the EC50 (NCI-H1975, NCI-H1975) was 2830 nM. The EC50 (NCI-H2023, NCI-H2023) was 518 nM, the EC50 (NCI-H2030, NCI-H2030) was 559 nM and the EC50 (NCI-H2073, NCI-H2073) was 4450 nM. For the same compound, the EC50 (NCI-H2087, NCI-H2087) was 1120 nM, the EC50 (NCI-H2110, NCI-H2110) was 1760 nM and the EC50 (NCI-H2122, NCI-H2122) was 893 nM. It also gave an EC50 (NCI-H2126, NCI-H2126) greater than 30000 nM, an EC50 (NCI-H2170, NCI-H2170) of 17500 nM and an EC50 (NCI-H2171, NCI-H2171) of 1340 nM. For the same compound, the EC50 (NCI-H2172, NCI-H2172) was 4890 nM, the EC50 (NCI-H2228, NCI-H2228) was 4930 nM and the EC50 (NCI-H2286, NCI-H2286) was 364 nM. The EC50 (NCI-H2444, NCI-H2444) was 322 nM, the EC50 (NCI-H2452, NCI-H2452) was 1940 nM and the EC50 (NCI-H3255, NCI-H3255) was greater than 30000 nM. It also gave an EC50 (NCI-N87, NCI-N87) of 106 nM, an EC50 (NO36) of 2000 nM and an EC50 (NOMO-1, NOMO-1) of 1640 nM. For the same compound, the EC50 (NUGC-3, NUGC-3) was 6500 nM, the EC50 (OCI-AML-3, OCI-AML3) was 1180 nM and the EC50 (OCI-AML-5, OCI-AML5) was 677 nM. The EC50 (OCI-Ly3, OCI-LY3) was 404 nM, the EC50 (ONCO-DG-1, ONCO-DG-1) was 1110 nM and the EC50 (OUMS-23, OUMS-23) was 747 nM. For the same compound, the EC50 (OV56, OV56) was 401 nM, the EC50 (OVCAR-3, NIH:OVCAR-3) was 523 nM and the EC50 (OVCAR-4, OVCAR-4) was 1540 nM. The EC50 (OVISE) was 29100 nM, the EC50 (P3HR-1, P3HR-1) was 560 nM and the EC50 (P12-Ichikawa) was 279 nM. The EC50 (P31-FUJ, P31/FUJ) was 690 nM, the EC50 (PANC-1, PANC-1) was 477 nM and the EC50 (PANC-03-27, Panc 03.27) was 679 nM. The EC50 (PC-3, PC-3) was 5890 nM, the EC50 (PC-14, PC-14) was 8990 nM and the EC50 (PE/CA-PJ49) was 970 nM. It also gave an EC50 (PF-382, PF-382) of 262 nM, an EC50 (PK-1, PK-1) of 2710 nM and an EC50 (PK-45H) of 1860 nM. For the same compound, the EC50 (PK-59, PK-59) was 1760 nM, the EC50 (PL45, PL45) was 722 nM and the EC50 (PL-21, PL-21) was 684 nM. It also gave an EC50 (PLC-PRF-5, PLC/PRF/5) of 6990 nM, an EC50 (PSN1, PSN1) of 1680 nM and an EC50 (PaTu 8902, PA-TU-8902) of 2330 nM. For the same compound, the EC50 (PaTu 8988t, PA-TU-8988T) was 5870 nM, the EC50 (Panc 04.03, Panc 04.03) was 6710 nM and the EC50 (Panc1005, Panc 10.05) was 308 nM. For the same compound, the EC50 (QGP-1, QGP-1) was greater than 30000 nM, the EC50 (RCM-1, RCM-1) was 2700 nM and the EC50 (RD) was 1830 nM. For the same compound, the EC50 (RD-ES) was 839 nM, the EC50 (RERF-LC-AI) was 581 nM and the EC50 (RERF-LC-MS) was 1560 nM. For the same compound, the EC50 (RKN) was 1130 nM, the EC50 (RKO) was 2720 nM and the EC50 (RMUG-S) was greater than 30000 nM. It also gave an EC50 (RPMI 8402, RPMI-8402) of 633 nM, an EC50 (RPMI-7951, RPMI-7951) of 16000 nM and an EC50 (RT-112, RT-112) of 5730 nM. It also gave an EC50 (RVH-421, RVH-421) of 2430 nM, an EC50 (Rh41, RH-41) of 952 nM and an EC50 (SCC-25, SCC-25) of 9930 nM. The EC50 (SCaBER) was 3550 nM, the EC50 (SEM) was 728 nM and the EC50 (SF8657) was greater than 30000 nM. For the same compound, the EC50 (SF-268, SF-268) was 1880 nM, the EC50 (SH-4, SH-4) was 426 nM and the EC50 (SH-10-TC) was 1390 nM. For the same compound, the EC50 (SH-SY5Y) was 3480 nM, the EC50 (SJRH30, SJRH30) was 1930 nM and the EC50 (SK-CO-1, SK-CO-1) was 1220 nM. The EC50 (SK-ES1, SK-ES-1) was 543 nM, the EC50 (SK-HEP1, SK-HEP-1) was 979 nM and the EC50 (SK-LU-1, SK-LU-1) was 3370 nM. For the same compound, the EC50 (SK-MEL3, SK-MEL-3) was 20000 nM, the EC50 (SK-MEL-2, SK-MEL-2) was 1940 nM and the EC50 (SK-MEL-5, SK-MEL-5) was 1590 nM. For the same compound, the EC50 (SK-MEL-28, SK-MEL-28) was 419 nM, the EC50 (SK-MEL-30, SK-MEL-30) was 2280 nM and the EC50 (SK-MEL-31) was 5350 nM. The EC50 (SK-N-SH) was 2610 nM, the EC50 (SK-OV-3, SK-OV-3) was greater than 30000 nM and the EC50 (SKM-1, SKM-1) was 487 nM. For the same compound, the EC50 (SKNBE2, SK-N-BE(2)) was 455 nM, the EC50 (SNB-19, SNB-19) was 2200 nM and the EC50 (SNG-M) was 370 nM. For the same compound, the EC50 (SNU878, SNU-878) was 6720 nM, the EC50 (SNU-8) was 601 nM and the EC50 (SNU-16, SNU-16) was 2080 nM. The EC50 (SNU-61) was 1990 nM, the EC50 (SNU-81) was 733 nM and the EC50 (SNU-175) was 806 nM. The EC50 (SNU-213) was 4010 nM, the EC50 (SNU-349) was 3550 nM and the EC50 (SNU-387, SNU-387) was 666 nM. The EC50 (SNU-398, SNU-398) was 277 nM, the EC50 (SNU-410) was 21100 nM and the EC50 (SNU-423, SNU-423) was 1310 nM.
